The results in this text go back to patent publication US11090304B2 (Amgen Inc., priority 2018, dated 2021).

Where two headings read alike, the source gives them in different places.

Assay [1] has as its target GDP-bound KRAS protein (aa 1-169), containing both G12C and C118A amino acid substitutions (Homo sapiens, UniProt P01116, C118A/G12C). The experiment in a line: Coupled nucleotide exchange assay (SOS-mediated, AlphaScreen). In kind it is biochemical. To be noted: 5 min compound pre-incubation; for IC50: read-out: Coupled exchange IC50 (5 min). A general note: Alpha assays give light when donor and acceptor beads are brought close together.

Assay [2] has as its system Phosphorylation of ERK1/2 in MIA PaCa-2 cells. The experiment in a line: Phospho-ERK1/2 MSD assay in MIA PaCa-2 cells. In kind it is cell-based. The procedure:
For compounds in Table 89, the following assay conditions were employed:
Phospho-ERK1/2 MSD Assay:
Sixteen hours prior to compound treatment, MIA PaCa-2 or A549 cells were seeded in 96-well cell culture plates at a density of 25,000 cells/well and incubated at 37° C., 5% CO2. A compound dose-response titration was diluted in growth media, added to appropriate wells of a cell culture plate, and then incubated at 37° C., 5% CO2 for 2 or 4 hours (see Table 15). Following compound treatment, cells were stimulated with 10 ng/mL EGF (Roche 11376454001) for 10 min, washed with ice-cold Dulbecco's phosphate-buffered saline, no Ca^2+ or Mg^2+ (ThermoFisher Scientific 14190144), and then lysed in RIPA buffer (50 mM Tris-HCl pH 7.5, 1% Igepal, 0.5% sodium deoxycholate, 150 mM NaCl, and 0.5% sodium dodecyl sulfate) containing protease inhibitors (Roche 4693132001) and phosphatase inhibitors (Roche 4906837001). Phosphorylation of ERK1/2 in compound-treated lysates was assayed using Phospho-ERK1/2 Whole Cell Lysate kits (Meso Scale Discovery K151DWD) according to the manufacturer's protocol. Assay plates were read on a Meso Scale Discovery Sector Imager 6000, and data were analyzed using a 4-parameter logistic model to calculate IC50 values.

The mark [3] stands for this setting: read-out: p-ERK IC50 (2 h; MIA PaCa-2), 2 h compound treatment.
[4] abbreviates: Homo sapiens, MIA PaCa-2, 2 h, read-out: p-ERK IC50 (2 h; MIA PaCa-2), 2 h compound treatment.

The term IC50 denotes the concentration at which inhibition is half-maximal. Consider “6-Chloro-7-(2-fluoro-6-hydroxyphenyl)-4-((2S)-2-methyl-4-(2-propenoyl)-1-piperazinyl)-1-(2-(methylsulfonyl)phenyl)pyrido[2,3-d]pyrimidin-2(1H)-one [Example 54-1]”, for which the figures for the half-maximal inhibitory concentration (IC50) in assay [1] and in assay [2] (setting [3]) were 225 nM and 109 nM, respectively. For `C=CC(=O)N1CCN(c2nc(=O)n(-c3c(C)cccc3C(C)C)c3nc(-c4ccccc4F)c(Cl)cc23)[C@@H](C)C1` (atropisomer, axis not shown; (M)) [Example 64-1, (M)-6-Chloro-7-(2-fluorophenyl)-1-(2-methyl-6-(2-propanyl)phenyl)-4-((2S)-2-methyl-4-(2-propenoyl)-1-piperazinyl)pyrido[2,3-d]pyrimidin-2(1H)-one], in that order: 44 nM and 76 nM. As for `C=CC(=O)N1CCN(c2nc(=O)n(-c3c(C)ccnc3C(C)C)c3nc(-c4nc(N)ccc4Cl)c(F)cc23)C(C)C1` (atropisomer, axis not shown; (M)) [Example 65-1, (M)-7-(6-Amino-3-chloro-2-pyridinyl)-6-fluoro-1-(4-methyl-2-(2-propanyl)-3-pyridinyl)-4-((2S)-2-methyl-4-(2-propenoyl)-1-piperazinyl)pyrido[2,3-d]pyrimidin-2(1H)-one], the “Coupled exchange IC50 (5 min)” value in assay [1] is 0.606 | nda μM. Besides, the half-inhibitory concentration (IC50) in assay [2] (setting [4]) was 1520 nM. For `C=CC(=O)N1CCN(c2nc(=O)n(-c3c(C)ccnc3C(C)C)c3nc(-c4c(O)cc(F)cc4F)c(F)cc23)[C@@H](C)C1` (atropisomer, axis not shown; (M)) [Example 65-3, (M)-7-(2,4-difluoro-6-hydroxyphenyl)-6-fluoro-1-(4-methyl-2-(2-propanyl)-3-pyridinyl)-4-((2S)-2-methyl-4-(2-propenoyl)-1-piperazinyl)pyrido[2,3-d]pyrimidin-2(1H)-one], in that order: 0.096 | nda μM and 100 nM. The corresponding values for `C=CC(=O)N1CCN(c2nc(=O)n(-c3c(C)ccnc3C(C)C)c3nc(-c4cc(F)c(F)cc4O)c(F)cc23)[C@@H](C)C1` (atropisomer, axis not shown; (M)) [Example 72-2, (M)-7-(4,5-difluoro-2-hydroxyphenyl)-6-fluoro-1-(4-methyl-2-(2-propanyl)-3-pyridinyl)-4-((2S)-2-methyl-4-(2-propenoyl)-1-piperazinyl)pyrido[2,3-d]pyrimidin-2(1H)-one] are 0.534 | nda μM and 595 nM. In the case of `C=CC(=O)N1CCN(c2nc(=O)n(-c3c(C)ccnc3C(C)C)c3nc(-c4c(C)cccc4O)c(F)cc23)[C@@H](C)C1` (atropisomer, axis not shown; (M)) [Example 72-4, (M)-6-fluoro-7-(2-hydroxy-6-methylphenyl)-1-(4-methyl-2-(2-propanyl)-3-pyridinyl)-4-((2S)-2-methyl-4-(2-propenoyl)-1-piperazinyl)pyrido[2,3-d]pyrimidin-2(1H)-one], the “Coupled exchange IC50 (5 min)” value in assay [1] is listed as 0.08 | nda μM. In addition, the IC50 in assay [2] (setting [4]) worked out at 115 nM.

For the compound `C=CC(=O)N1CCN(c2nc(=O)n(-c3c(C)ccnc3C(C)C)c3nc(-c4cc(OC)c(F)cc4F)c(F)cc23)[C@@H](C)C1` (atropisomer, axis not shown; (M)) [Example 72-6, (M)-7-(2,4-difluoro-5-methoxyphenyl)-6-fluoro-1-(4-methyl)-2-(2-propanyl)-3-pyridinyl)-4-((2S)-(2-methyl-4-(2-propenoyl)-1-piperazinyl)pyrido[2,3-d]pyrimidin-2(1H)-one], the “Coupled exchange IC50 (5 min)” value in assay [1] is reported as 0.315 | nda μM. In addition, the IC50 in assay [2] (setting [4]) is 564 nM. For the compound `C=CC(=O)N1CCN(c2nc(=O)n(-c3c(C)ccnc3C(C)C)c3nc(-c4cc(O)c(F)cc4F)c(F)cc23)[C@@H](C)C1` (atropisomer, axis not shown; (M)) [Example 72-7, (M)-7-(2,4-difluoro-5-hydroxyphenyl)-6-fluoro-1-(4-methyl-2-(2-propanyl)-3-pyridinyl)-4-((2S)-2-methyl-4-(2-propenoyl)-1-piperazinyl)pyrido[2,3-d]pyrimidin-2(1H)-one], the “Coupled exchange IC50 (5 min)” value in assay [1] is 0.262 | nda μM. The IC50 in assay [2] (setting [4]) was 2240 nM. Regarding `C=CC(=O)N1CCN(c2nc(=O)n(-c3c(C)ccnc3C(C)C)c3nc(-c4c(O)ccc(F)c4F)c(F)cc23)[C@@H](C)C1` (atropisomer, axis not shown; (M)) [Example 72-8, (M)-7-(2,3-difluoro-6-hydroxyphenyl)-6-fluoro-1-(4-methyl-2-(2-propanyl)-3-pyridinyl)-4-((2S)-2-methyl-4-(2-propenoyl)-1-piperazinyl)pyrido[2,3-d]pyrimidin-2(1H)-one], in assay [1], the “Coupled exchange IC50 (5 min)” value is listed as 0.042 | nda μM. The half-maximal inhibitory concentration (IC50) in assay [2] (setting [4]) came to 91 nM. For the compound `C=CC(=O)N1CCN(c2nc(=O)n(-c3c(C)ccnc3C(C)C)c3nc(-c4c(F)ccc(F)c4O)c(F)cc23)[C@@H](C)C1` (atropisomer, axis not shown; (M)) [Example 72-9, (M)-7-(3,6-difluoro-2-hydroxyphenyl)-6-fluoro-1-(4-methyl-2-(2-propanyl)-3-pyridinyl)-4-((2S)-2-methyl-4-(2-propenoyl)-1-piperazinyl)pyrido[2,3-d]pyrimidin-2(1H)-one], the “Coupled exchange IC50 (5 min)” value in assay [1] is given as 0.191 | nda μM. For the same compound, the 50% inhibitory concentration (IC50) in assay [2] (setting [4]) is 554 nM. With `C=CC(=O)N1CCN(c2nc(=O)n(-c3c(C)ccnc3C(C)C)c3nc(-c4c(F)ccc(C)c4O)c(F)cc23)[C@@H](C)C1` (atropisomer, axis not shown; (M)) [Example 72-10, (M)-6-fluoro-7-(6-fluoro-2-hydroxy-3-methylphenyl)-1-(4-methyl-2-(2-propanyl)-3-pyridinyl)-4-((2S)-2-methyl-4-(2-propenoyl)-1-piperazinyl)pyrido[2,3-d]pyrimidin-2(1H)-one], in assay [1], the “Coupled exchange IC50 (5 min)” value is given as 0.158 | nda μM. The half-inhibitory concentration (IC50) in assay [2] (setting [4]) came to 150 nM. In the case of `C=CC(=O)N1CCN(c2nc(=O)n(-c3c(C)ccnc3C(C)C)c3nc(-c4c(N)cccc4F)c(F)cc23)[C@@H](C)C1` (atropisomer, axis not shown; (M)) [Example 72-11, (M)-7-(2-amino-6-fluorophenyl)-6-fluoro-1-(4-methyl-2-(2-propanyl)-3-pyridinyl)-4-((2S)-2-methyl-4-(2-propenoyl)-1-piperazinyl)pyrido[2,3-d]pyrimidin-2(1H)-one], in assay [1], the “Coupled exchange IC50 (5 min)” value was 0.039 | nda μM. Also, the half-inhibitory concentration (IC50) in assay [2] (setting [4]) was determined as 44 nM. On to `C=CC(=O)N1CCN(c2nc(=O)n(-c3c(C(C)C)ccnc3C)c3nc(-c4c(O)cccc4F)c(F)cc23)[C@@H](C)C1` [Example 58-15, 6-fluoro-7-(2-fluoro-6-hydroxyphenyl)-1-(2-methyl-4-(2-propanyl)-3-pyridinyl)-4-((2S)-2-methyl-4-(2-propenoyl)-1-piperazinyl)pyrido[2,3-d]pyrimidin-2(1H)-one], for which, in assay [2] (setting [4]), the IC50 amounted to 365 nM. Turning to `C=CC(=O)N1CCN(c2nc(=O)n(-c3c(C)cccc3C(C)C)c3nc(-c4c(O)cccc4F)c(F)cc23)[C@@H](C)C1` [Example 58-18, 6-fluoro-7-(2-fluoro-6-hydroxyphenyl)-1-(2-methyl-6-(2-propanyl)phenyl)-4-((2S)-2-methyl-4-(2-propenoyl)-1-piperazinyl)pyrido[2,3-d]pyrimidin-2(1H)-one], in assay [2] (setting [4]), the IC50 was found to be 272 nM. Consider `C=CC(=O)N1CCN(c2nc(=O)n(CC3(C(F)(F)F)CC3)c3nc(-c4ccccc4F)c(Cl)cc23)CC1` [Example 60-4, 6-chloro-7-(2-fluorophenyl)-4-(4-(2-propenoyl)-1-piperazinyl)-1-((1-(trifluoromethyl)cyclopropyl)methyl)pyrido[2,3-d]pyrimidin-2(1H)-one], for which the IC50 in assay [2] (Homo sapiens, MIA PaCa-2, 4 h, read-out: p-ERK IC50 (4 h; MIA PaCa-2), 4 h compound treatment) is 2250 nM. In the case of `C=CC(=O)N1CCN(c2nc(=O)n(-c3ccccc3C(C)C)c3nc(N4CCCC4)c(Cl)cc23)[C@@H](C)C1` [Example 69-3, 6-chloro-4-((2S)-2-methyl-4-(2-propenoyl)-1-piperazinyl)-1-(2-(2-propanyl)phenyl)-7-(1-pyrrolidinyl)pyrido[2,3-d]pyrimidin-2(1H)-one], the concentration for half-maximal inhibition (IC50) in assay [2] (setting [4]) amounted to 1700 nM. On to `C=CC(=O)N1CCN(c2nc(C)c(-c3ccccc3C3CC3)c3nc(-c4ccccc4F)c(Cl)cc23)CC1` [Example 85-3, 1-(4-(3-chloro-8-(2-cyclopropylphenyl)-2-(2-fluorophenyl)-7-methyl-1,6-naphthyridin-5-yl)-1-piperazinyl)-2-propen-1-one], for which the IC50 in assay [2] (setting [4]) came to 10000 nM.

Take `C=CC(=O)N1CCN(c2nc(C)c(-c3ccccc3C(C)C)c3nc(-c4ccccc4F)c(Cl)cc23)[C@@H](C)C1` [Example 85-4, 1-((3S)-4-(3-chloro-2-(2-fluorophenyl)-7-methyl-8-(2-(2-propanyl)phenyl)-1,6-naphthyridin-5-yl)-3-methyl-1-piperazinyl)-2-propen-1-one]: the IC50 in assay [2] (setting [4]) was 10000 nM. Same read-out and setting: the figure for `C=CC(=O)N1CCN(c2nc(CO)cc3nc(-c4ccccc4F)c(Cl)cc23)[C@@H](C)C1` [Example 150, 1-((3S)-4-(3-Chloro-2-(2-fluorophenyl)-7-(hydroxymethyl)-1,6-naphthyridin-5-yl)-3-methyl-1-piperazinyl)-2-propen-1-one] is 3330 nM.
